Test results as given in the OligoGym collection.
Values joined by “and” are separate entries in the source; they are usually repeats but may differ in a detail not shown here. Identical values can stand only once. After the bases stand the sugars from the 5' end (letter, count) and the backbone: PS all phosphorothioate, else s phosphorothioate and o phosphodiester by linkage. HELM strings list units from the 5' end as sugar, base in round brackets, then linkage (d deoxyribose, r ribose, m 2'-O-methyl, p phosphodiester). Methylation of C is not given here. [mop] = methoxypropylphosphonate linkage; [moe] = 2'-O-(2-methoxyethyl) (MOE); [cEt] = constrained ethyl (cEt); [sp] = phosphorothioate linkage; e = 2'-O-(2-methoxyethyl) (MOE); k = constrained ethyl (cEt); d = 2'-deoxy (DNA); m = 2'-O-methyl

Experiments:
[1] = molecular target: IRF5; details: ASO
[2] = molecular target: HBV; details: ASO

Substance	target mRNA inhibition ([1]; KARPAS-229, 4 µM)	other results
CGGTCTTTGAGGTCTG (sugars k3 d9 k3 e1, PS)	32%	–
AAGATGGTGTTATCTC (sugars k3 d10 k3, PS)	0%	–
GGTCTGGCCCTTTTGG (sugars k3 d9 k3 e1, PS)	0%	–
GGTTCTTGGACTCTCA (sugars kkddddddddddkeke, PS)	51% and 73%	target mRNA inhibition ([1]; KARPAS-229, 0.44444 µM): 39%; target mRNA inhibition ([1]; KARPAS-229, 1.33333 µM): 59%; target mRNA inhibition ([1]; KARPAS-229, 12 µM): 84%
AGATGGTGTTATCTCC (sugars k3 d10 k3, PS)	0%	–
GGAGTGAGACGAGCAA (sugars k2 d8 e4 k2, PS)	17%	–
AAGGGCACAGCGCAGG (sugars k2 d11 k3, PS)	0% and 2%	–
CCCAATGCAACATCCA (sugars kekdddddddddeekk, PS)	0%	–
GATGGTGTTATCTCCG (sugars k2 d9 e3 k2, PS)	0%	–
GCTGTCACATCTCCAC (sugars kkddddddddddkeke, PS)	8%	–
ACCACTGTGTACCCCA (sugars kddddddddddkekek, PS)	43%	–
AGCTTGGTCTTGACCT (sugars k3 d9 k3 e1, PS)	10%	–
ACTGACACAGGCGGAT (sugars k3 d9 k3 e1, PS)	0%	–
GGTCTTGACCTCCCGC (sugars kkdddddddddkekek, PS)	7%	–
GAGTCATGGGCTGAGG (sugars kkdddddddddkekek, PS)	15%	–
TCTGATATGATACCTA (sugars k3 d1 m1 d8 k3, PS)	–	target mRNA inhibition ([1]; A-431, 0.00412 µM): 1%; target mRNA inhibition ([1]; A-431, 0.01225 µM): 8%; target mRNA inhibition ([1]; A-431, 0.03704 µM): 35%; target mRNA inhibition ([1]; A-431, 0.11111 µM): 57%; target mRNA inhibition ([1]; A-431, 0.33333 µM): 77%; target mRNA inhibition ([1]; A-431, 1 µM): 81%
TCCAATTTTGCATTCC (sugars kkdddddddddkekek, PS)	29%	–
GCATTCCATATACACA (sugars kkddddddddddkeke, PS)	37%	–
GGTCTTGACCTCCCGC (sugars kkddddddddddkeke, PS)	0%	–
TGCCTTCTGCAGGGAG (sugars k3 d10 k3, PS)	0%	–
GTTCTTGGACTCTCAA (sugars kkdddddddddkdkdk, PS)	20%	–
GTGAGTCTCAAACCAG (sugars kddddddddddkekek, PS)	0%	–
TTATTTCTGCTCCAGG (sugars kdddddddddkekeke, PS)	0%	–
TCCAATTTTGCATTCC (sugars k3 d10 k3, PS)	78% and 79%	target mRNA inhibition ([1]; KARPAS-229, 0.44444 µM): 38%; target mRNA inhibition ([1]; KARPAS-229, 1.33333 µM): 66%; target mRNA inhibition ([1]; KARPAS-229, 12 µM): 83%
GGAGTGAGACGAGCAA (sugars k2 d9 e3 k2, PS)	25%	–

Substance	target mRNA inhibition ([1]; KARPAS-229, 4 µM)	other results
TTCTGCAGGGAGTCAG (sugars kkddddddddkekekk, PS)	0%	–
CATTCTATGCCTTTTA (sugars kdddddddddkekeke, PS)	13%	–
TTATCTCCGTCCTGGC (sugars kkdddddddddkdkdk, PS)	14%	–
GCATTCCATATACACA (sugars k3 d10 k3, PS)	21%	–
GAGTCATGGGCTGAGG (sugars kkkddddddddkekek, PS)	0%	–
TAAACCATTCTATGCC (sugars k3 d10 k3, PS)	9%	–
CCTATACAGCTAGGCC (sugars k3 d10 k3, PS)	0%	–
TTATCTCCGTCCTGGC (sugars k2 d8 e4 k2, PS)	0%	–
CTGATATGATACCTAA (sugars k3 d2 m1 d7 k3, PS)	–	target mRNA inhibition ([1]; A-431, 0.00412 µM): 1%; target mRNA inhibition ([1]; A-431, 0.01225 µM): 14%; target mRNA inhibition ([1]; A-431, 0.03704 µM): 31%; target mRNA inhibition ([1]; A-431, 0.11111 µM): 56%; target mRNA inhibition ([1]; A-431, 0.33333 µM): 74%; target mRNA inhibition ([1]; A-431, 1 µM): 79%
CGGTCTTTGAGGTCTG (sugars kkddddddddkekekk, PS)	33%	–
CTTGGTCTTGACCTCC (sugars k3 d10 k3, PS)	41%	–
TGAGTCTCAAACCAGG (sugars kkdddkddddkekekk, PS)	0%	–
CTGTCACATCTCCACA (sugars k2 d8 e4 k2, PS)	11%	–
GCTTGGTCTTGACCTC (sugars kkkdddddddddkeke, PS)	35%	–
TCTGATATGATACCTA (sugars k3 d1 k1 d8 k3, PS)	–	target mRNA inhibition ([1]; A-431, 0.00412 µM): 0%; target mRNA inhibition ([1]; A-431, 0.01225 µM): 7%; target mRNA inhibition ([1]; A-431, 0.03704 µM): 43%; target mRNA inhibition ([1]; A-431, 0.11111 µM): 65%; target mRNA inhibition ([1]; A-431, 0.33333 µM): 81%; target mRNA inhibition ([1]; A-431, 1 µM): 85%
CCTTCTGCAGGGAGTC (sugars kkddddddddkekekk, PS)	0%	–
CCAATGCAACATCCAT (sugars kkkddddddddkekek, PS)	0%	–
ACATCTCCACATCAGT (sugars k2 d8 e4 k2, PS)	24%	–
GCTGTCACATCTCCAC (sugars kdddddddddkekeke, PS)	0%	–
AGCTTGGTCTTGACCT (sugars kkkdddddddddkeke, PS)	26%	–
CTTGGTCTTGACCTCC (sugars kddddddddddkekek, PS)	0%	–
GGAAGTGAGTCTCAAA (sugars k3 d10 k3, PS)	51% and 68%	target mRNA inhibition ([1]; KARPAS-229, 0.44444 µM): 27%; target mRNA inhibition ([1]; KARPAS-229, 1.33333 µM): 39%; target mRNA inhibition ([1]; KARPAS-229, 12 µM): 79%
CCACTGTGTACCCCAT (sugars k2 d9 e3 k2, PS)	64%	–
CACCACTGTGTACCCC (sugars kddddddddddkekek, PS)	0%	–
GGTCTTGACCTCCCGC (sugars kdddddddddkekeke, PS)	35%	–

Substance	target mRNA inhibition ([1]; KARPAS-229, 4 µM)	other results
ACCATTCTATGCCTTT (sugars kkkddddddddkdkdk, PS)	11%	–
TTGTCTAGTGTCATGG (sugars kkddddddddkekekk, PS)	0%	–
GTTATCTCCGTTCCTGG (sugars kddddddddddkekekd, PS)	0%	–
TGTCTAGTGTCATGGA (sugars kkdmdddddddeeekk, PS)	–	target mRNA inhibition ([1]; A-431, 0.00412 µM): 0%; target mRNA inhibition ([1]; A-431, 0.01225 µM): 11%; target mRNA inhibition ([1]; A-431, 0.03704 µM): 5%; target mRNA inhibition ([1]; A-431, 0.11111 µM): 15%; target mRNA inhibition ([1]; A-431, 0.33333 µM): 25%; target mRNA inhibition ([1]; A-431, 1 µM): 33%
TCTTGACCTCCCGCTG (sugars kddddddddddkekek, PS)	46%	–
TGTCACATCTCCACAT (sugars kddddddddddkekek, PS)	16%	–
TATTTCTGCTCCAGGT (sugars k2 d9 e3 k2, PS)	–	target mRNA inhibition ([1]; KARPAS-229, 0.44444 µM): 57%; target mRNA inhibition ([1]; KARPAS-229, 1.33333 µM): 71%; target mRNA inhibition ([1]; KARPAS-229, 12 µM): 83%
AAGGGCACAGCGCAGG (sugars kkdddddddddkekek, PS)	0%	–
GATGGTGTTATCTCCG (sugars kkkddddddddkekek, PS)	0%	–
CCCAATGCAACATCCA (sugars kkddddddddddkeke, PS)	0%	–
AGCTTTCTTGTCTAGT (sugars k3 d10 k3, PS)	20%	–
GGAAGTGAGTCTCAAA (sugars kkdddddddddkdkdk, PS)	12%	–
TTATTTCTGCTCCAGG (sugars kekdddddddddeekk, PS)	56% and 80%	target mRNA inhibition ([1]; KARPAS-229, 0.44444 µM): 53%; target mRNA inhibition ([1]; KARPAS-229, 1.33333 µM): 69%; target mRNA inhibition ([1]; KARPAS-229, 12 µM): 86%
TTTTGTGACTGTATTA (sugars k3 d10 k3, PS)	2%	–
AGGAGTGAGACGAGCA (sugars kkddddddddddkeke, PS)	28%	–
TCCAATTTTGCATTCC (sugars kkddddddddddkeke, PS)	40%	–
CAGGTTCTTGGACTCT (sugars k3 d9 k3 e1, PS)	0%	–
CTGATATGATACCTAA (sugars k3 d10 k3, linkages s4 [mop]1 s10)	–	target mRNA inhibition ([1]; A-431, 0.00412 µM): 11%; target mRNA inhibition ([1]; A-431, 0.01225 µM): 22%; target mRNA inhibition ([1]; A-431, 0.03704 µM): 29%; target mRNA inhibition ([1]; A-431, 0.11111 µM): 56%; target mRNA inhibition ([1]; A-431, 0.33333 µM): 76%; target mRNA inhibition ([1]; A-431, 1 µM): 78%
CATTCTATGCCTTTTA (sugars kddddddddddkekek, PS)	37%	–
GGTCTGGCCCTTTTGG (sugars kkkdddddddddkeke, PS)	17%	–
RNA1{[moe](A)[sp].[moe](G)[sp].[moe](C)[sp].[moe](G)[sp].d(A)[sp].d(A)[sp].d(G)[sp].d(T)[sp].d(G)[sp].d(C)[sp].d(A)[sp].d(C)[sp].d(A)[sp].[moe](C)[sp].[moe](G)[sp].[moe](G)}$$$$V2.0	–	target mRNA inhibition ([2]; HepG2, 0.0092593 µM): 25%; target mRNA inhibition ([2]; HepG2, 0.0277778 µM): 37%; target mRNA inhibition ([2]; HepG2, 0.07 µM): 78% and 73%; target mRNA inhibition ([2]; HepG2, 0.0833333 µM): 73%; target mRNA inhibition ([2]; HepG2, 0.25 µM): 87%
RNA1{[moe](G)[sp].[moe](G)[sp].[moe](T)[sp].d(G)[sp].d(A)[sp].d(A)[sp].d(G)[sp].d(C)[sp].d(G)[sp].d(A)[sp].d(A)[sp].d(G)[sp].[moe](T)[sp].[moe](G)[sp].[moe](C)[sp].[moe](A)}$$$$V2.0	–	target mRNA inhibition ([2]; HepG2, 0.07 µM): 67% and 60%
RNA1{[moe](C)[sp].[cEt](C)[sp].[cEt](A)[sp].d(A)[sp].d(T)[sp].d(T)[sp].d(T)[sp].d(A)[sp].d(T)[sp].d(G)[sp].d(C)[sp].d(C)[sp].d(T)[sp].[cEt](A)[sp].[cEt](C)[sp].[moe](A)}$$$$V2.0	–	target mRNA inhibition ([2]; HepG2, 0.07 µM): 42% and 18%
RNA1{[moe](C)[sp].[cEt](T)[sp].[cEt](G)[sp].d(A)[sp].d(A)[sp].d(C)[sp].d(A)[sp].d(A)[sp].d(A)[sp].d(T)[sp].d(G)[sp].d(G)[sp].d(C)[sp].[cEt](A)[sp].[cEt](C)[sp].[moe](T)}$$$$V2.0	–	target mRNA inhibition ([2]; HepG2, 0.07 µM): 69% and 58%
RNA1{[moe](A)[sp].[moe](G)[sp].[moe](A)[sp].d(G)[sp].d(A)[sp].d(A)[sp].d(G)[sp].d(T)[sp].d(C)[sp].d(C)[sp].d(A)[sp].d(C)[sp].[moe](C)[sp].[moe](A)[sp].[moe](C)[sp].[moe](G)[sp].[moe](A)}$$$$V2.0	–	target mRNA inhibition ([2]; HepG2, 0.07 µM): 59% and 56%
